These results are taken from ChEMBL document CHEMBL3588852, “Gastroprotective activity of ent-beyerene derivatives in mice: Effects on gastric secretion, endogenous prostaglandins and non-protein sulfhydryls” (Bioorg Med Chem Lett, 2015).

The first assay relates to AGS. Put plainly: Cytotoxic activity against human AGS cells assessed as reduction in cell viability incubated for 48 hrs by MTT assay. It counts as cell-based.
Conditions: not given
Background: Tetrazolium assays rely on reduction of a dye to a coloured formazan, in cell work by metabolically active cells.
Regarding `COc1ccccc1/C=C/C(=O)OC[C@@]1(C)CCC[C@]2(C)[C@@H]1CC[C@@]13C=C[C@@](C)(CC[C@H]12)C3`, the IC50 turned out to be 151 µM.
Take `COc1cccc(/C=C/C(=O)OC[C@@]2(C)CCC[C@]3(C)[C@@H]2CC[C@@]24C=C[C@@](C)(CC[C@H]23)C4)c1`: the half-inhibitory concentration (IC50) was 165 µM.
Consider `C[C@]12C=C[C@@]3(CC[C@@H]4[C@@](C)(COC(=O)/C=C/c5ccc([N+](=O)[O-])cc5)CCC[C@@]4(C)[C@@H]3CC1)C2`, for which the IC50 turned out to be 35 µM.
On to `C[C@]12C=C[C@@]3(CC[C@@H]4[C@@](C)(COC(=O)/C=C/c5ccccc5[N+](=O)[O-])CCC[C@@]4(C)[C@@H]3CC1)C2`, for which the 50% inhibitory concentration (IC50) amounted to 25 µM.
In the case of `CCCCCCCCCCCCCCCCCCCC(=O)OC[C@@]1(C)CCC[C@]2(C)[C@@H]1CC[C@@]13C=C[C@@](C)(CC[C@H]12)C3`, the IC50 amounted to 321 µM.
With `CCCCCCCCCCCC(=O)OC[C@@]1(C)CCC[C@]2(C)[C@@H]1CC[C@@]13C=C[C@@](C)(CC[C@H]12)C3`, the IC50 worked out at 33 µM.
As for `CCCCCCCCCCCCCCCCCC(=O)OC[C@@]1(C)CCC[C@]2(C)[C@@H]1CC[C@@]13C=C[C@@](C)(CC[C@H]12)C3`, the half-maximal inhibitory concentration (IC50) came to 228 µM.
On to `C[C@]12C=C[C@@]3(CC[C@@H]4[C@@](C)(COC(=O)/C=C/c5ccccc5)CCC[C@@]4(C)[C@@H]3CC1)C2`, for which the half-maximal inhibitory concentration (IC50) was 30 µM.
As for `C[C@]12C=C[C@@]3(CC[C@@H]4[C@@](C)(COC(=O)/C=C/c5ccc(Cl)cc5)CCC[C@@]4(C)[C@@H]3CC1)C2`, the IC50 worked out at 18 µM.

System in another assay: not listed separately
Put plainly: Cytotoxic activity against human fibroblasts assessed as reduction in cell viability incubated for 48 hrs by MTT assay. It counts as cell-based. To be noted: Fibroblast.
For the compound `COc1ccccc1/C=C/C(=O)OC[C@@]1(C)CCC[C@]2(C)[C@@H]1CC[C@@]13C=C[C@@](C)(CC[C@H]12)C3`, the IC50 amounted to 311 µM.
On the same count and under the same terms, the same measure for `COc1cccc(/C=C/C(=O)OC[C@@]2(C)CCC[C@]3(C)[C@@H]2CC[C@@]24C=C[C@@](C)(CC[C@H]23)C4)c1`: 289 µM.
On the same count and under the same terms, the value for `C[C@]12C=C[C@@]3(CC[C@@H]4[C@@](C)(COC(=O)/C=C/c5ccc([N+](=O)[O-])cc5)CCC[C@@]4(C)[C@@H]3CC1)C2` was 61 µM.
With `C[C@]12C=C[C@@]3(CC[C@@H]4[C@@](C)(COC(=O)/C=C/c5ccccc5[N+](=O)[O-])CCC[C@@]4(C)[C@@H]3CC1)C2`, the half-inhibitory concentration (IC50) stood at 38 µM.
The same measure, in the same setting: the same measure for `CCCCCCCCCCCCCCCCCCCC(=O)OC[C@@]1(C)CCC[C@]2(C)[C@@H]1CC[C@@]13C=C[C@@](C)(CC[C@H]12)C3`: 581 µM; for `CCCCCCCCCCCC(=O)OC[C@@]1(C)CCC[C@]2(C)[C@@H]1CC[C@@]13C=C[C@@](C)(CC[C@H]12)C3`: 52 µM; for `CCCCCCCCCCCCCCCCCC(=O)OC[C@@]1(C)CCC[C@]2(C)[C@@H]1CC[C@@]13C=C[C@@](C)(CC[C@H]12)C3`: 359 µM.
In the case of `C[C@]12C=C[C@@]3(CC[C@@H]4[C@@](C)(COC(=O)/C=C/c5ccccc5)CCC[C@@]4(C)[C@@H]3CC1)C2`, the concentration for half-maximal inhibition (IC50) was 45 µM.
On to `C[C@]12C=C[C@@]3(CC[C@@H]4[C@@](C)(COC(=O)/C=C/c5ccc(Cl)cc5)CCC[C@@]4(C)[C@@H]3CC1)C2`, for which the IC50 is 29 µM.

The test system of another assay is Mus musculus. In words: Gastroprotective activity in Swiss albino mouse model of HCl/EtOH-induced lesion assessed as gastric lesion index at 70 mg/kg, po dosed 50 mins before HCl/EtOH challenge and measured 1 hr post HCl/EtOH challenge (reference value: 42 +/- 1.9 mm).
Conditions: not given
It counts as functional, Stomach.
In the case of `COC(=O)[C@@H](N)CCCNC(=N)N[N+](=O)[O-]` [L-NAME], the Activity is recorded as 42.7 mm.

Another assay concerns Mus musculus. Put plainly: Gastroprotective activity in Swiss albino mouse model of HCl/EtOH-induced lesion assessed as inhibition of gastric lesions at 50 mg/kg, po dosed 50 mins before HCl/EtOH challenge and measured 1 hr post HCl/EtOH challenge. It counts as functional. To be noted: Stomach.
Turning to `COc1ccccc1/C=C/C(=O)OC[C@@]1(C)CCC[C@]2(C)[C@@H]1CC[C@@]13C=C[C@@](C)(CC[C@H]12)C3`, the inhibition in vivo at 50 mg/kg was found to be 7%.
As to `COc1cccc(/C=C/C(=O)OC[C@@]2(C)CCC[C@]3(C)[C@@H]2CC[C@@]24C=C[C@@](C)(CC[C@H]23)C4)c1`, the inhibition in vivo at 50 mg/kg came out at 4%.
Still for that read-out and setting: the same measure for `C[C@]12C=C[C@@]3(CC[C@@H]4[C@@](C)(COC(=O)/C=C/c5ccc([N+](=O)[O-])cc5)CCC[C@@]4(C)[C@@H]3CC1)C2`: 0%.
The same measure, in the same setting: the value for `C[C@]12C=C[C@@]3(CC[C@@H]4[C@@](C)(COC(=O)/C=C/c5ccccc5[N+](=O)[O-])CCC[C@@]4(C)[C@@H]3CC1)C2` was 14%; that for `CCCCCCCCCCCCCCCCCCCC(=O)OC[C@@]1(C)CCC[C@]2(C)[C@@H]1CC[C@@]13C=C[C@@](C)(CC[C@H]12)C3` was 34%; that for `CCCCCCCCCCCC(=O)OC[C@@]1(C)CCC[C@]2(C)[C@@H]1CC[C@@]13C=C[C@@](C)(CC[C@H]12)C3` was 51%.
The same measure, in the same setting: the value for `CCCCCCCCCCCCCCCCCC(=O)OC[C@@]1(C)CCC[C@]2(C)[C@@H]1CC[C@@]13C=C[C@@](C)(CC[C@H]12)C3` was 44%; that for `C[C@]12C=C[C@@]3(CC[C@@H]4[C@@](C)(COC(=O)/C=C/c5ccccc5)CCC[C@@]4(C)[C@@H]3CC1)C2` was 68%; that for `C[C@]12C=C[C@@]3(CC[C@@H]4[C@@](C)(COC(=O)/C=C/c5ccc(Cl)cc5)CCC[C@@]4(C)[C@@H]3CC1)C2` was 42%.

A further assay concerns Mus musculus. In words: Gastroprotective activity in Swiss albino mouse model of HCl/EtOH-induced lesion assessed as gastric lesion index at 10 mg/kg, po dosed 50 mins before HCl/EtOH challenge and measured 1 hr post HCl/EtOH challenge (reference value: 42 +/- 1.9 mm). It counts as functional, Stomach.
Conditions: not given
Regarding `CCN1C(=O)C=CC1=O` [N-ETHYLMALEIMIDE], the Activity came to 41.9 mm.
The same measure, in the same setting: the same measure for `COc1ccc2c(c1)c(CC(=O)O)c(C)n2C(=O)c1ccc(Cl)cc1` [INDOMETHACIN]: 39.9 mm.

The IC50 is the concentration needed to halve the response being measured. The inhibition in vivo is the percentage by which the read-out fell short of the control.
